{
  "source": "the supplement of paper PMC10307832",
  "test_in_all_cases": "relative viability (nuclei count vs DMSO), 5 days (fraction); higher = more cells survive",
  "key": {"[1]": {"test_system": "NCI-H1650", "method_in_brief": "(§1)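 Dosing by pin tool came one day after lung cancer cell lines were seeded in 1536-well plates, using either one drug or a fixed anchor-drug dose plus five library-drug doses (not always all listed) in √10 steps. After 5 days, nuclei were counted on 4× images. Relative viability is treated-well nuclei count divided by vehicle-well nuclei count, and values are medians of duplicate plates.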"}, "[2]": {"test_system": "HARA", "method_in_brief": "as §1"}, "[3]": {"test_system": "HCC-15", "method_in_brief": "as §1"}, "[4]": {"test_system": "NCI-H2023", "method_in_brief": "as §1"}, "[5]": {"test_system": "HCC-366", "method_in_brief": "as §1"}, "[6]": {"test_system": "LCLC-103H", "method_in_brief": "as §1"}, "[7]": {"test_system": "NCI-H2126", "method_in_brief": "as §1"}, "[8]": {"test_system": "HCC-44", "method_in_brief": "as §1"}, "[9]": {"test_system": "NCI-H441", "method_in_brief": "as §1"}, "[10]": {"test_system": "LOU-NH91", "method_in_brief": "as §1"}, "[11]": {"test_system": "NCI-H1734", "method_in_brief": "as §1"}, "[12]": {"test_system": "RERF-LC-KJ", "method_in_brief": "as §1"}},
  "data": [
    {"compound": "O=c1[nH]c2ccccc2n1C1CCN(CCCC(c2ccc(F)cc2)c2ccc(F)cc2)CC1", "note": "[Pimozide] + CC(C)C[C@H](NC(=O)[C@H](Cc1ccccc1)NC(=O)c1cnccn1)B(O)O [Bortezomib] (partner 0.002 µM)", "values": [
      {"measurement": "relative viability", "setting": "[1]; first compound 0.8 µM", "value": 0.188},
      {"measurement": "relative viability", "setting": "[1]; first compound 2.53 µM", "value": 0.177},
      {"measurement": "relative viability", "setting": "[1]; first compound 8 µM", "value": 0.178},
      {"measurement": "relative viability", "setting": "[2]; first compound 0.08 µM", "value": 0.857},
      {"measurement": "relative viability", "setting": "[2]; first compound 0.253 µM", "value": 1.16},
      {"measurement": "relative viability", "setting": "[2]; first compound 0.8 µM", "value": 0.937},
      {"measurement": "relative viability", "setting": "[2]; first compound 2.53 µM", "value": 1.17},
      {"measurement": "relative viability", "setting": "[2]; first compound 8 µM", "value": 1.06},
      {"measurement": "relative viability", "setting": "[3]; first compound 0.08 µM", "value": 1.12},
      {"measurement": "relative viability", "setting": "[3]; first compound 0.253 µM", "value": 0.994},
      {"measurement": "relative viability", "setting": "[3]; first compound 0.8 µM", "value": 0.848},
      {"measurement": "relative viability", "setting": "[3]; first compound 2.53 µM", "value": 0.963},
      {"measurement": "relative viability", "setting": "[3]; first compound 8 µM", "value": 0.908},
      {"measurement": "relative viability", "setting": "[4]; first compound 0.08 µM", "value": 0.973},
      {"measurement": "relative viability", "setting": "[4]; first compound 0.253 µM", "value": 0.996},
      {"measurement": "relative viability", "setting": "[4]; first compound 0.8 µM", "value": 0.74},
      {"measurement": "relative viability", "setting": "[4]; first compound 2.53 µM", "value": 0.884},
      {"measurement": "relative viability", "setting": "[4]; first compound 8 µM", "value": 0.581},
      {"measurement": "relative viability", "setting": "[5]; first compound 0.08 µM", "value": 1.01},
      {"measurement": "relative viability", "setting": "[5]; first compound 0.253 µM", "value": 0.999},
      {"measurement": "relative viability", "setting": "[5]; first compound 0.8 µM", "value": 0.985},
      {"measurement": "relative viability", "setting": "[5]; first compound 2.53 µM", "value": 1.03},
      {"measurement": "relative viability", "setting": "[5]; first compound 8 µM", "value": 1.01},
      {"measurement": "relative viability", "setting": "[6]; first compound 0.08 µM", "value": 1},
      {"measurement": "relative viability", "setting": "[6]; first compound 0.253 µM", "value": 1.07},
      {"measurement": "relative viability", "setting": "[6]; first compound 0.8 µM", "value": 0.877},
      {"measurement": "relative viability", "setting": "[6]; first compound 2.53 µM", "value": 1.08},
      {"measurement": "relative viability", "setting": "[6]; first compound 8 µM", "value": 1.12},
      {"measurement": "relative viability", "setting": "[7]; first compound 0.08 µM", "value": 1.14},
      {"measurement": "relative viability", "setting": "[7]; first compound 0.253 µM", "value": 1.1},
      {"measurement": "relative viability", "setting": "[7]; first compound 0.8 µM", "value": 1.1},
      {"measurement": "relative viability", "setting": "[7]; first compound 2.53 µM", "value": 1.11},
      {"measurement": "relative viability", "setting": "[7]; first compound 8 µM", "value": 1.05},
      {"measurement": "relative viability", "setting": "[8]; first compound 0.08 µM", "value": 0.874},
      {"measurement": "relative viability", "setting": "[8]; first compound 0.253 µM", "value": 0.788},
      {"measurement": "relative viability", "setting": "[8]; first compound 0.8 µM", "value": 0.856},
      {"measurement": "relative viability", "setting": "[8]; first compound 2.53 µM", "value": 0.975},
      {"measurement": "relative viability", "setting": "[8]; first compound 8 µM", "value": 0.877},
      {"measurement": "relative viability", "setting": "[9]; first compound 0.08 µM", "value": 0.692},
      {"measurement": "relative viability", "setting": "[9]; first compound 0.253 µM", "value": 0.366},
      {"measurement": "relative viability", "setting": "[9]; first compound 0.8 µM", "value": 0.325},
      {"measurement": "relative viability", "setting": "[9]; first compound 2.53 µM", "value": 0.451},
      {"measurement": "relative viability", "setting": "[9]; first compound 8 µM", "value": 0.336},
      {"measurement": "relative viability", "setting": "[10]; first compound 0.08 µM", "value": 0.498},
      {"measurement": "relative viability", "setting": "[10]; first compound 0.253 µM", "value": 0.528},
      {"measurement": "relative viability", "setting": "[10]; first compound 0.8 µM", "value": 0.529},
      {"measurement": "relative viability", "setting": "[10]; first compound 2.53 µM", "value": 0.504},
      {"measurement": "relative viability", "setting": "[10]; first compound 8 µM", "value": 0.479},
      {"measurement": "relative viability", "setting": "[11]; first compound 0.08 µM", "value": 0.903},
      {"measurement": "relative viability", "setting": "[11]; first compound 0.253 µM", "value": 0.958},
      {"measurement": "relative viability", "setting": "[11]; first compound 0.8 µM", "value": 0.916},
      {"measurement": "relative viability", "setting": "[11]; first compound 2.53 µM", "value": 0.993},
      {"measurement": "relative viability", "setting": "[11]; first compound 8 µM", "value": 0.844},
      {"measurement": "relative viability", "setting": "[12]; first compound 0.08 µM", "value": 1.1},
      {"measurement": "relative viability", "setting": "[12]; first compound 0.253 µM", "value": 0.92},
      {"measurement": "relative viability", "setting": "[12]; first compound 0.8 µM", "value": 0.949},
      {"measurement": "relative viability", "setting": "[12]; first compound 2.53 µM", "value": 1.02},
      {"measurement": "relative viability", "setting": "[12]; first compound 8 µM", "value": 0.92}
    ]}
  ]
}
